Here are results for 3 compounds from patent US6369066B1, “Substituted 1,3-oxathiolanes with antiviral properties” (BioChem Pharma, Inc., priority 1990, dated 2002).

Type in all cases: cell-based
Data set [1] deals with cord blood mononuclear cells (CBM). Description: Cytotoxicity (CD50) reported with CBM assay. The procedure:
Assays on cord blood mononuclear cells were done substantially as described in Gu et al., J. Virol.
In short, viruses (HTLV-IIIB) that had initially been grown on MT-4 cells were passaged onto phytohemaglutinin-prestimulated cord blood mononuclear cells (CBM). For subsequent analysis, samples of CBM (5×10^5 cells per mL) were pretreated with various concentrations of the different compounds for 4 h and were then inoculated with CBL-grown HIV-1 at a multiplicity of infection of 1.0 in the concentration of the compound used for the pretreatment. Fresh medium, including the appropriate concentration of the compound was added three times weekly, and fresh phytohemaglutinin-prestimulated CBM (5×10^5 cells per mL) were added at 2-day intervals. […] 66: 12-19.

The subject of a further data set is CEM. Put plainly: Cell culture inhibitory dose (CCID50) in CEM. The following applies: cell counting, trypan blue exclusion, 7 days post drug treatment. On the procedure: (§1) Evaluation of Cell Culture Inhibitory Dose (CCID50)
(§2) Cell growth was determined by cell counting and viability by trypan blue exclusion 7 days post drug treatment. CCID50 is expressed as the drug concentration which inhibits 50% of cell growth.

Another data set has as its system C8166 cells. Put plainly: Cytotoxicity (CD50) reported with syncytium formation assay. The following applies: syncytium formation table.
For a further data set, the system named is U937. Description: Cell culture inhibitory dose (CCID50) in U937. The following applies: cell counting, trypan blue exclusion, 7 days post drug treatment. On the procedure:
as §1, §2

The next data set has as its system MT-4 cells. Put plainly: Formazan (MTT) assay, drug-induced cytotoxicity in uninfected MT-4 cells. The following applies: human, 7 days. The procedure:
Anti-HIV-1 antiviral activity was determined in MT-4 calls and MT-4 cells that have been made resistant to 3TC™. […] An uninfected cell suspension was prepared in parallel to evaluate drug-induced cytotoxicity. The two suspensions were incubated for 90 minutes at room temperature. Test compounds were serially diluted in 10-fold decrements from 100 μg/ml to 0.01 μg/ml (final concentrations in two 96 well microtitre plates. 20 μl of infected cell suspension were inoculated into each well of one of the plates (anti-viral), while 20 μl of uninfected cell suspension were added to each well of the second plate (cytotoxicity). The plates were then incubated for 7 days at 37° C. After incubation, 10 μl of 3-(4,5-dimethylthiazol-2-yl)-2,5-diphenyltetrazolium bromide (MTT) at 20 mg/ml was added to all wells and the plates incubated for a further 90 minutes at 37° C.
150 μl of 10% (v/v) alcoholic Triton X-100 was then added and the cells resuspended. After 15 minutes at room temperature, the plates were analyzed in a Multiskan MC reader at 405 nm. […] The optical density values for the cytotoxicity controls and the antiviral test wells were graphically plotted and the dose of compounds required to inhibit the conversion of MMT to 50% of the untreated uninfected controls was calculated.

Another data set relates to HTLV-IIIb. Put plainly: HIV-1 acutely infected cell lines, p24 antigen levels. As to conditions: p24 antigen at day 6; for ID50 CEM: CEM cells infected with HTLV-IIIb; for ID50 H9: H9 cells infected with HTLV-IIIb; for ID50 Jurkat: Jurkat cells infected with HTLV-IIIb; for ID50 MT-4: MT-4 cells infected with HTLV-IIIb; for ID50 U937: U937 cells infected with HTLV-IIIb. The procedure:
Determination of IC50 ([…]) in HIV-1 Acutely Infected Cell Lines in the Presence of Differet Antiviral Compounds
Various cell lines were infected with HTLV-IIIb (TCID50=200) and then cultured with various concentrations of drug. IC50 was determined by measuring p24 antigen levels in the supernatant of cultures at day 6 of infection.

The next data set concerns HIV-1 (HTLV-IIIB). Put plainly: CBM assay, IC50 from RT levels in culture fluids. As to conditions: Human immunodeficiency virus 1. On the procedure:
Assays on cord blood mononuclear cells were done substantially as described in Gu et al., J. Virol. (1992), 66:7128-7135.
(§3) In short, viruses (HTLV-IIIB) that had initially been grown on MT-4 cells were passaged onto phytohemaglutinin-prestimulated cord blood mononuclear cells (CBM). For subsequent analysis, samples of CBM (5×10^5 cells per mL) were pretreated with various concentrations of the different compounds for 4 h and were then inoculated with CBL-grown HIV-1 at a multiplicity of infection of 1.0 in the concentration of the compound used for the pretreatment. Fresh medium, including the appropriate concentration of the compound was added three times weekly, and fresh phytohemaglutinin-prestimulated CBM (5×10^5 cells per mL) were added at 2-day intervals. The calculation of IC50 was determined on the basis of RT levels in culture fluids as described in Gao et al., (1992), J. Virol. 66: 12-19.

The next data set has as its system H9. Description: Cell culture inhibitory dose (CCID50) in H9. As to conditions: cell counting, trypan blue exclusion, 7 days post drug treatment. On the procedure:
as §1, §2

The subject of the next data set is MT-4. Put plainly: Cell culture inhibitory dose (CCID50) in MT-4. As to conditions: cell counting, trypan blue exclusion, 7 days post drug treatment. The procedure:
as §1, §2

The subject of the next data set is CBMCs. Put plainly: Cell culture inhibitory dose (CCID50) in CBMCs. The following applies: cell counting, trypan blue exclusion, 7 days post drug treatment. On the procedure: as §1, §2
In a further data set the test system is HIV-1 IIIB. Description: IC50 in CBMCs with HIV-1 isolate IIIB. The following applies: Human immunodeficiency virus 1. On the procedure:
as §3
Determination of IC50 (μM) in Different Mutated Isolates of HIV-1 in the Presence of Different Antiviral Compounds
The procedure is similar to the procedure used in the CBM assay, with the exception that constructed virus and construted mutated virus were used.

For the next data set, the system named is Jurkat. Description: Cell culture inhibitory dose (CCID50) in Jurkat. As to conditions: cell counting, trypan blue exclusion, 7 days post drug treatment. On the procedure: as §1, §2
The subject of another data set is HIV-1 strain RF. Description: Formazan (MTT) assay on MT-4 cells, anti-HIV-1 antiviral activity. As to conditions: Human immunodeficiency virus 1, MT4, 168 h, MT-4 cells infected with HIV-1 strain RF, 7 days, read-out: IC50 (50% anti-viral dose, ID 50%). On the procedure: Formazan Assay on MT-4 and 3TC™-Resistant Cell Lines
Anti-HIV-1 antiviral activity was determined in MT-4 calls and MT-4 cells that have been made resistant to 3TC™. A suspension of cells (approximately 10^6 cells/ml) in RPMI 1640 growth medium was infected with HIV-1 strain RF at a M.O.I. of 10^−3 infectious units/cell. An uninfected cell suspension was prepared in parallel to evaluate drug-induced cytotoxicity. The two suspensions were incubated for 90 minutes at room temperature. Test compounds were serially diluted in 10-fold decrements from 100 μg/ml to 0.01 μg/ml (final concentrations in two 96 well microtitre plates. 20 μl of infected cell suspension were inoculated into each well of one of the plates (anti-viral), while 20 μl of uninfected cell suspension were added to each well of the second plate (cytotoxicity). The plates were then incubated for 7 days at 37° C. After incubation, 10 μl of 3-(4,5-dimethylthiazol-2-yl)-2,5-diphenyltetrazolium bromide (MTT) at 20 mg/ml was added to all wells and the plates incubated for a further 90 minutes at 37° C.
150 μl of 10% (v/v) alcoholic Triton X-100 was then added and the cells resuspended. After 15 minutes at room temperature, the plates were analyzed in a Multiskan MC reader at 405 nm. Conversion of yellow MMT to its formazan derivative is maximum in uninfected cells, and absent in untreated infected cells. The optical density values for the cytotoxicity controls and the antiviral test wells were graphically plotted and the dose of compounds required to inhibit the conversion of MMT to 50% of the untreated uninfected controls was calculated. In this way, both the 50% cytotoxic dose (CD 50%) and the 50% anti-viral dose (ID 50%) can be calculated.

≈ marks a conversion by molar mass, not a printed value.

With `Nc1nc(=O)n([C@H]2CO[C@@H](CO)S2)cc1F` [compound 3, 2R-hydroxymethyl-4R-(5′-fluorocytosin-1′-yl)-1,3-oxathiolane], the CD50 in data set [1] is >23 µg/mL. For the same compound, in the data set with CEM, the “CCID50 CEM” value was >500 µM. Also, in the data set with C8166 cells, the CD50 was >100 µg/mL. Besides, the “CCID50 U937” value in the data set on U937 was >500 µM. In the data set with MT-4 cells, the “CD50 (50% cytotoxic dose)” value is >100 µg/mL. In addition, in the data set on HTLV-IIIb, the “ID50 CEM” value was determined as 0.2 µg/mL (≈ 0.809 µM), the “ID50 H9” value was 0.1 µg/mL (≈ 0.404 µM), the “ID50 Jurkat” value is 3.5 µg/mL (≈ 14.2 µM) and the “ID50 MT-4” value came out at 3.0 µg/mL (≈ 12.1 µM). Moreover, the “ID50 U937” value with HTLV-IIIb amounted to 0.6 µg/mL (≈ 2.43 µM). For the same compound, the IC50 in the data set with HIV-1 (HTLV-IIIB) lay within 0.002 to 0.05 µg/mL (≈ 0.00809 to 0.202 µM). Also, in the data set on H9, the “CCID50 H9” value was >500 µM. Besides, the “CCID50 MT-4” value in the data set with MT-4 was >500 µM. Moreover, in the data set on CBMCs, the “CCID50 CBMCs” value is >500 µM. For the same compound, the IC50 in the data set with HIV-1 IIIB was 830 nM. In the data set with Jurkat, the “CCID50 Jurkat” value was >500 µM. For the same compound, the half-inhibitory concentration (IC50) with HIV-1 strain RF is 6 µg/mL (≈ 24.3 µM).

Turning to `Nc1ccn([C@@H]2CO[C@H](CO)S2)c(=O)n1` [Compound #2, 2S-hydroxymethyl-4S-(cytosin-1′-yl)-1,3-oxathiolane], the CD50 in data set [1] was >23 µg/mL. The “CCID50 CEM” value in the data set with CEM amounted to 103 µM. Besides, the CD50 with C8166 cells is >100 µg/mL. Moreover, in the data set with U937, the “CCID50 U937” value was found to be 22 µM. For the same compound, the “CD50 (50% cytotoxic dose)” value in the data set on MT-4 cells was >100 µg/mL. Further, in the data set with HTLV-IIIb, the “ID50 CEM” value was determined as 0.4 µg/mL (≈ 1.74 µM), the “ID50 H9” value is 0.075 µg/mL (≈ 0.327 µM), the “ID50 Jurkat” value turned out to be 1.8 µg/mL (≈ 7.85 µM) and the “ID50 MT-4” value worked out at 0.9 µg/mL (≈ 3.93 µM). In addition, the “ID50 U937” value in the data set on HTLV-IIIb was 0.3 µg/mL (≈ 1.31 µM). The same compound gave an IC50 in the data set with HIV-1 (HTLV-IIIB) of 0.03 to 1.22 µg/mL (≈ 0.131 to 5.32 µM). Also, the “CCID50 H9” value in the data set on H9 was >500 µM. Further, the “CCID50 MT-4” value in the data set with MT-4 was >500 µM. In addition, the “CCID50 CBMCs” value in the data set with CBMCs stood at 105 µM. Further, in the data set with HIV-1 IIIB, the midpoint of inhibition, the IC50, lay at 280 nM. In the data set with Jurkat, the “CCID50 Jurkat” value amounted to 11 µM. The concentration for half-maximal inhibition (IC50) with HIV-1 strain RF was found to be 4.4 µg/mL (≈ 19.2 µM).

With `Nc1nc(=O)n([C@@H]2CO[C@H](CO)S2)cc1F` [compound 4, 2S-hydroxymethyl-4S-(5′-fluorocytosin-1′-yl)-1,3-oxathiolane], in [1], the CD50 is >23 µg/mL. Moreover, in the data set with CEM, the “CCID50 CEM” value was >500 µM. The CD50 with C8166 cells is >100 µg/mL. In addition, the “CCID50 U937” value in the data set on U937 is >500 µM. For the same compound, the “CD50 (50% cytotoxic dose)” value in the data set with MT-4 cells was determined as 100 µg/mL. Further, in the data set with HTLV-IIIb, the “ID50 CEM” value was determined as 0.3 µg/mL (≈ 1.21 µM), the “ID50 H9” value is 1.0 µg/mL (≈ 4.04 µM), the “ID50 Jurkat” value worked out at 6.0 µg/mL (≈ 24.3 µM) and the “ID50 MT-4” value amounted to 3.2 µg/mL (≈ 12.9 µM). Also, in the data set on HTLV-IIIb, the “ID50 U937” value stood at 0.4 µg/mL (≈ 1.62 µM). For the same compound, the IC50 in the data set on HIV-1 (HTLV-IIIB) was in the range of 0.02 to 0.05 µg/mL (≈ 0.0809 to 0.202 µM). Moreover, the “CCID50 H9” value in the data set with H9 was >500 µM. Also, the “CCID50 MT-4” value in the data set with MT-4 is >500 µM. In addition, the “CCID50 CBMCs” value with CBMCs is >500 µM. Besides, the IC50 with HIV-1 IIIB came out at 340 nM. In the data set on Jurkat, the “CCID50 Jurkat” value was >500 µM. For the same compound, the IC50 in the data set on HIV-1 strain RF is 2.9 µg/mL (≈ 11.7 µM).

In general, IC50 refers to the concentration that gives 50% inhibition.
